Several values for one entry are separate records, joined by “and”; a condition that tells them apart may be missing. Equal values may be shown once. Where no end group is shown, it is not given here.
Legend:
[1] = Anti-cancer activity, 5637 cell; assay type: cell-based, human; conditions: bladder cancer; for CC50 at 2 days: human, read-out: LC50; for CC50: read-out: LC50 (the source's name)
Method: (§1) Anti-cancer activity was evaluated using a method complying with an anti-cancer agent screening method (1990) using a human cancer cell panel which has been carried out by U.S. National Cancer Institute (NCI). Cells employed in experiments were from the following three cell lines: HL60 cell (cell line derived from human leukemia); HeLa cell (cell line derived from human uterine cancer); and HCT116 cell (cell line derived from human large intestine cancer). Media suitable for use of these cells are RPMI-1640 medium containing 10% FCS; a MEM medium containing 10% CS; and McCoy5A medium containing 10% FCS, respectively.
(§2) Cells suspended in themedium wereplated into 96-well plates at a concentration of 1×10^5 cells/cm^2, followed by incubation overnight. Peptide solutions containing various concentrations of the peptide of the present invention were added to the plates, followed by incubation at 37° C. for 2 days in a CO2 incubator. During culturing, the growth of the cells was measured by colorimetry using sulforhodamine B and the peptide concentration was categorized into any of GI50 which is the concentration at which the growth is inhibited by 50% as compared to the control; TGI which is the concentration at which the number of cells is seemingly not increased or decreased from the time of addition of the peptide of the present invention, i.e., the growth is suppressed to the same number of cells as when the peptide was added: and LC50 which is the concentration at which the number of cells is decreased to 50% of that at the time of addition of the peptide.
(§3) Thereafter, various cancer cells were employed to confirm the anti-cancer activity of mast21R. Each cancer cell was cultured in RPMI-1640 medium containing 10% FCS.

[2] = Anti-cancer activity, EJ-1 cell; assay type: cell-based, human; conditions: for CC50 at 2 days: human, EJ-1 cells (bladder cancer cells), read-out: LC50; for CC50: bladder cancer, read-out: LC50 (the source's name)
Method: as §1, §2, §3

[3] = Anti-cancer activity, KATO III cell; assay type: cell-based, human; conditions: for CC50 at 2 days: human, KATO III cells (stomach cancer cells), read-out: LC50; for CC50: stomach cancer, read-out: LC50 (the source's name)
Method: as §1, §2, §3

[4] = Anti-cancer activity, SH-10-TC; assay type: cell-based, human; conditions: for LC50 at 2 days: human, SH-10-TC cells (stomach cancer cells); for LC50: stomach cancer
Method: as §1, §2, §3

[5] = Anti-cancer activity, SR-BR-3; assay type: cell-based, human; conditions: SR-BR-3, breast cancer; for CC50 at 2 days: human, SR-BR-3 cells (breast cancer cells), read-out: LC50; for CC50: read-out: LC50 (the source's name)
Method: as §1, §2, §3

[6] = Anti-cancer activity, MCF7; assay type: cell-based, human; conditions: for LC50 at 2 days: human, MCF7 cells (breast cancer cells); for LC50: MCF7, breast cancer
Method: as §1, §2, §3

[7] = Anti-cancer activity, A549; assay type: cell-based, human; conditions: A549, lung cancer; for CC50 at 2 days: human, read-out: LC50; for CC50: read-out: LC50 (the source's name)
Method: as §1, §2, §3

[8] = Anti-cancer activity, LK-2; assay type: cell-based, human; conditions: LK-2, lung cancer; for CC50 at 2 days: human, LK-2 cells (lung cancer cells), read-out: LC50; for CC50: read-out: LC50 (the source's name)
Method: as §1, §2, §3

[9] = Anti-cancer activity, EBC-1; assay type: cell-based, human; conditions: EBC-1, lung cancer; for CC50 at 2 days: human, EBC-1 cells (lung cancer cells), read-out: LC50; for CC50: read-out: LC50 (the source's name)
Method: as §1, §2, §3

[10] = Anti-cancer activity, PC-3; assay type: cell-based, human; conditions: PC-3, prostate cancer; for CC50 at 2 days: human, PC-3 cells (prostate cancer cells), read-out: LC50; for CC50: read-out: LC50 (the source's name)
Method: as §1, §2, §3

[11] = Anti-cancer activity, DU-145; assay type: cell-based, human; conditions: DU-145, prostate cancer; for CC50 at 2 days: human, read-out: LC50; for CC50: read-out: LC50 (the source's name)
Method: as §1, §2, §3

[12] = Anti-cancer activity, A172; assay type: cell-based, human; conditions: A172, glioblastoma; for CC50 at 2 days: human, read-out: LC50; for CC50: read-out: LC50 (the source's name)
Method: as §1, §2, §3

[13] = Anti-cancer activity, colo205; assay type: cell-based, human; conditions: colo205, large intestine cancer; for CC50 at 2 days: human, read-out: LC50; for CC50: read-out: LC50 (the source's name)
Method: as §1, §2, §3

[14] = Anti-cancer activity, HCT-15; assay type: cell-based, human; conditions: HCT-15, large intestine cancer; for CC50 at 2 days: human, HCT-15 cells (large intestine cancer cells), read-out: LC50; for CC50: read-out: LC50 (the source's name)
Method: as §1, §2, §3

[15] = Anti-cancer activity, D98-AH2; assay type: cell-based, human; conditions: for CC50 at 2 days: human, D98-AH2 cells (uterine cancer cells), read-out: LC50; for CC50: D98-AH2, uterine cancer, read-out: LC50 (the source's name)
Method: as §1, §2, §3

[16] = Anti-cancer activity, NIH OVCAR-3; assay type: cell-based, human; conditions: NIH OVCAR-3, ovarian cancer; for CC50 at 2 days: human, NIH OVCAR-3 cells (ovarian cancer cells), read-out: LC50; for CC50: read-out: LC50 (the source's name)
Method: as §1, §2, §3

[17] = Anti-cancer activity, ACHN; assay type: cell-based, human; conditions: for CC50 at 2 days: human, ACHN cells (kidney cancer cells), read-out: LC50; for CC50: kidney cancer, read-out: LC50 (the source's name)
Method: as §1, §2, §3

[18] = system: Erwinia carotovora (NBRC3380); experiment: Antibacterial activity against plant pathogenic bacteria; assay type: cell-based; conditions: 30° C., 16 to 24 h
Method: Mast21, mast21R, ALR6, and KVL6 were evaluated with respect to antibacterial activity against Erwinia carotovora (NBRC3380) which is a plant pathogenic bacterium causing soft rot. Specifically, a minimum concentration of a peptide capable of inhibiting the growth of bacteria was determined using microtiter plates. Bacteria were cultured for 16 h in culture medium (Difco Nutrient Broth 8 g, NaCl 5 g/L, pH 7.0), followed by measurement of absorbance at A600. Each bacterial strain was diluted into a final concentration of 1×10^6 CFU/ml. For each peptide, 5 mM aqueous solution was prepared, and thereafter, was subjected to serial dilution. The peptide serial dilutions (50 μl for each) were added to respective wells of the microplate to which 50 μl of the bacterial solution had been added (final cell concentration: 5×10^5 CFU/ml, final peptide concentration: 0 to 50 μM). […] The unit of concentration described in Table 9 is μM.

B. subtilis IFO13722 = conditions: IFO13722, 18 h
B. sereus IFO3457 = conditions: 18 h
S. aureus IFO13276 = conditions: IFO13276, 18 h
S. aureus JCM2413 = conditions: JCM2413, 18 h
E. coli JCM1649 = conditions: JCM1649, 18 h
E. coli CR-3 = conditions: CR-3, 18 h
E. coli CE-273 = conditions: CE-273, 18 h
S. enteritidis ATCC1891 = conditions: ATCC1891, 18 h
S. enteritidis ATC14028 = conditions: ATC14028, 18 h
erythrocytes = conditions: red cells of human, 100 μM
[19] = Anti-cancer activity, HCT116 cell; assay type: cell-based, human; conditions: sulforhodamine B
Method: as §1
(§4) Cells suspended in themedium wereplated into 96-well plates at a concentration of 1×10^5 cells/cm^2, followed by incubation overnight. Peptide solutions containing various concentrations of the peptide of the present invention were added to the plates, followed by incubation at 37° C. for 2 days in a CO2 incubator. […]

[20] = Anti-cancer activity, HeLa cell; assay type: cell-based, human; conditions: sulforhodamine B
Method: as §1, §4

[21] = Anti-cancer activity, HL60 cell; assay type: cell-based, human; conditions: sulforhodamine B
Method: as §1, §4

[22] = 2 days, read-out: LC50 (the source's name)

Sequence: ALRALRALRALRALRALR [ALR6, ALRALRALRALRALRALR]
- CC50 at 2 days [1]: > 100 µM
- CC50 at 2 days [2]: > 100 µM
- CC50 at 2 days [3]: > 100 µM
- LC50 at 2 days [4]: > 100 µM
- CC50 at 2 days [5]: 100 µM
- LC50 at 2 days [6]: 80 µM
- CC50 at 2 days [7]: > 100 µM
- CC50 at 2 days [8]: > 100 µM
- CC50 at 2 days [9]: > 100 µM
- CC50 at 2 days [10]: > 100 µM
- CC50 at 2 days [11]: > 100 µM
- CC50 at 2 days [12]: > 100 µM
- CC50 at 2 days [13]: > 100 µM
- CC50 at 2 days [14]: > 100 µM
- CC50 at 2 days [15]: > 100 µM
- CC50 at 2 days [16]: > 100 µM
- CC50 at 2 days [17]: > 100 µM
- MIC [18]: 3.1 μM and 3.2 μg/ml

Sequence: KNWKGIAGMAKKLLGKNWKLM [mast21, reference compound]
- CC50 [1]: > 100 µM
- CC50 [2]: 70 µM
- CC50 [3]: > 100 µM
- LC50 [4]: 90 µM
- CC50 [5]: 90 µM
- LC50 [6]: 100 µM
- CC50 [7]: 70 µM
- CC50 [8]: > 100 µM
- CC50 [9]: 100 µM
- CC50 [10]: 100 µM
- CC50 [11]: > 100 µM
- CC50 [12]: > 100 µM
- CC50 [13]: > 100 µM
- CC50 [14]: 80 µM
- CC50 [15]: > 100 µM
- CC50 [16]: 100 µM
- CC50 [17]: 80 µM
- MIC [18]: 3.1 μM and 3.7 μg/ml
- MIC (B. subtilis IFO13722): 6.3 µM
- MIC (B. sereus IFO3457): 3.1 µM
- MIC (S. aureus IFO13276): 25 µM
- MIC (S. aureus JCM2413): 12.5 µM
- MIC (E. coli JCM1649): 6.3 µM
- MIC (E. coli CR-3): 6.3 µM
- MIC (E. coli CE-273): 3.1 µM
- MIC (S. enteritidis ATCC1891): 6.3 µM
- MIC (S. enteritidis ATC14028): 6.3 µM
- Hemolytic property (relative value) (erythrocytes): 5.4%

Sequence: KVLKVLKVLKVLKVL [KVL5, KVLKVLKVLKVLKVL]
- CC50 at 2 days ([19]; human, read-out: LC50): > 100 µM
- CC50 at 2 days ([20]; human, HeLa cells (uterine cancer cell line), read-out: LC50): > 100 µM
- LC50 at 2 days ([21]; human, HL60 cells (leukemia cell line)): > 100 µM
- MIC (B. subtilis IFO13722): 25 µM
- MIC (B. sereus IFO3457): 200 µM
- MIC (S. aureus IFO13276): 100 µM
- MIC (S. aureus JCM2413): 200 µM
- MIC (E. coli JCM1649): 12.5 µM
- MIC (E. coli CR-3): 25 µM
- MIC (E. coli CE-273): 6.3 µM
- MIC (S. enteritidis ATCC1891): 25 µM
- MIC (S. enteritidis ATC14028): 100 µM

Sequence: KVLKVLKVLKVLKVLKVL [KVL6, KVLKVLKVLKVLKVLKVL]
- CC50 at 2 days [1]: 100 µM
- CC50 at 2 days [2]: 90 µM
- CC50 at 2 days [3]: 100 µM
- LC50 at 2 days [4]: 60 µM
- CC50 at 2 days [5]: 100 µM
- LC50 at 2 days [6]: 100 µM
- CC50 at 2 days [7]: 70 µM
- CC50 at 2 days [8]: > 100 µM
- CC50 at 2 days [9]: > 100 µM
- CC50 at 2 days [10]: > 100 µM
- CC50 at 2 days [11]: > 100 µM
- CC50 at 2 days [12]: > 100 µM
- CC50 at 2 days [13]: 100 µM
- CC50 at 2 days [14]: 80 µM
- CC50 at 2 days [15]: > 100 µM
- CC50 at 2 days [16]: > 100 µM
- CC50 at 2 days [17]: 80 µM
- MIC [18]: 3.1 μM and 3.2 μg/ml

Sequence: RNWRGIAGMARRLLGRNWRLM [mast21R]
- CC50 [19, 22]: 2 µM
- CC50 [20, 22]: 20 µM
- LC50 ([21]; 2 days): 20 µM
- CC50 [1]: 50 µM
- CC50 [2]: 20 µM
- CC50 [3]: 50 µM
- LC50 [4]: 60 µM
- CC50 [5]: 90 µM
- LC50 [6]: 90 µM
- CC50 [7]: 50 µM
- CC50 [8]: > 100 µM
- CC50 [9]: 70 µM
- CC50 [10]: 60 µM
- CC50 [11]: 90 µM
- CC50 [12]: 50 µM
- CC50 [13]: 50 µM
- CC50 [14]: 30 µM
- CC50 [15]: 50 µM
- CC50 [16]: 80 µM
- CC50 [17]: 30 µM
- MIC [18]: 1.6 μM and 2 μg/ml
- MIC (B. subtilis IFO13722): 1.56 µM
- MIC (B. sereus IFO3457): 3.1 µM
- MIC (S. aureus IFO13276): 6.25 µM
- MIC (S. aureus JCM2413): 6.25 µM
- MIC (E. coli JCM1649): 3.1 µM
- MIC (E. coli CR-3): 1.6 µM
- MIC (E. coli CE-273): 3.1 µM
- MIC (S. enteritidis ATCC1891): 3.1 µM
- MIC (S. enteritidis ATC14028): 3.1 µM
- Hemolytic property (relative value) (erythrocytes): 13%
